# According to ChEMBL document CHEMBL3046521, “Synthesis and antitumor activity of (4-hydroxyphenyl)[5-substituted alkyl/aryl)-2-thioxo-1,3,4-thiadiazol-3-yl]methanone and [(3,4-disubstituted)-1,3-thiazol-2ylidene]-4-hydroxybenzohydrazide” (2011):
# What was measured:
# Type in all cases: functional
# A549 = experiment: Cytotoxicity against Homo sapiens (human) A549 cells after 48 hr by sulforhodamine B assay; conditions: A549, 48 h; for TGI: read-out: pTGI (converted)
# SF-295 = experiment: Cytotoxicity against Homo sapiens (human) SF295 cells after 48 hr by sulforhodamine B assay; conditions: SF-295, 48 h; for TGI: read-out: pTGI (converted)
# NCI-H23 = experiment: Cytotoxicity against Homo sapiens (human) NCI-H23 cells after 48 hr by sulforhodamine B assay; conditions: NCI-H23, 48 h; for TGI: read-out: pTGI (converted)
# [1] = Cytotoxicity against Homo sapiens (human) NCI-ADR-RES cells after 48 hr by sulforhodamine B assay; conditions: for TGI: read-out: pTGI (converted)
# HCT-116 = experiment: Cytotoxicity against Homo sapiens (human) HCT116 cells after 48 hr by sulforhodamine B assay; conditions: HCT-116, 48 h; for TGI: read-out: pTGI (converted)
# MDA-MB-468 = experiment: Cytotoxicity against Homo sapiens (human) MDA-MB-468 cells after 48 hr by sulforhodamine B assay; conditions: MDA-MB-468, 48 h; for TGI: read-out: pTGI (converted)
# TK-10 = experiment: Cytotoxicity against Homo sapiens (human) TK10 cells after 48 hr by sulforhodamine B assay; conditions: TK-10, 48 h; for TGI: read-out: pTGI (converted)
# MDA-MB-231 = experiment: Cytotoxicity against Homo sapiens (human) MDA-MB-231 cells after 48 hr by sulforhodamine B assay; conditions: MDA-MB-231, 48 h; for TGI: read-out: pTGI (converted)
# HOP-92 = experiment: Cytotoxicity against Homo sapiens (human) HOP92 cells after 48 hr by sulforhodamine B assay; conditions: HOP-92, 48 h; for TGI: read-out: pTGI (converted)
# ACHN = experiment: Cytotoxicity against Homo sapiens (human) ACHN cells after 48 hr by sulforhodamine B assay; conditions: for TGI: read-out: pTGI (converted)
# T47D = experiment: Cytotoxicity against Homo sapiens (human) T47D cells after 48 hr by sulforhodamine B assay; conditions: for TGI: read-out: pTGI (converted)
# BT-549 = experiment: Cytotoxicity against Homo sapiens (human) BT549 cells after 48 hr by sulforhodamine B assay; conditions: BT-549, 48 h; for TGI: read-out: pTGI (converted)
# NCI-H522 = experiment: Cytotoxicity against Homo sapiens (human) NCI-H522 cells after 48 hr by sulforhodamine B assay; conditions: NCI-H522, 48 h; for TGI: read-out: pTGI (converted)
# MOLT-4 = experiment: Cytotoxicity against Homo sapiens (human) MOLT4 cells after 48 hr by sulforhodamine B assay; conditions: MOLT-4, 48 h; for TGI: read-out: pTGI (converted)
# HT-29 = experiment: Cytotoxicity against Homo sapiens (human) HT-29 cells after 48 hr by sulforhodamine B assay; conditions: HT-29, 48 h; for TGI: read-out: pTGI (converted)
# LOX IMVI = experiment: Cytotoxicity against Homo sapiens (human) LOXIMVI cells after 48 hr by sulforhodamine B assay; conditions: for TGI: read-out: pTGI (converted)
# SW-620 = experiment: Cytotoxicity against Homo sapiens (human) SW620 cells after 48 hr by sulforhodamine B assay; conditions: SW-620, 48 h; for TGI: read-out: pTGI (converted)
# SN12C = experiment: Cytotoxicity against Homo sapiens (human) SN12C cells after 48 hr by sulforhodamine B assay; conditions: for TGI: read-out: pTGI (converted)
# RXF 393 = experiment: Cytotoxicity against Homo sapiens (human) RXF393 cells after 48 hr by sulforhodamine B assay; conditions: RXF 393, 48 h; for TGI: read-out: pTGI (converted)
# OVCAR-5 = experiment: Cytotoxicity against Homo sapiens (human) OVCAR5 cells after 48 hr by sulforhodamine B assay; conditions: OVCAR-5, 48 h; for TGI: read-out: pTGI (converted)
# SK-MEL-5 [2] = experiment: Anticancer activity in Homo sapiens (human) SK-MEL-5 cells assessed as cell growth at 10^-5 M after 48 hr by SRB assay; conditions: SK-MEL-5, 48 h, read-out: Activity
# SK-MEL-5 [3] = experiment: Cytotoxicity against Homo sapiens (human) SK-MEL-5 cells after 48 hr by sulforhodamine B assay; conditions: SK-MEL-5, 48 h; for TGI: read-out: pTGI (converted)
# NCI-H460 = experiment: Cytotoxicity against Homo sapiens (human) NCI-H460 cells after 48 hr by sulforhodamine B assay; conditions: NCI-H460, 48 h; for TGI: read-out: pTGI (converted)
# MDA-MB-435 = experiment: Cytotoxicity against Homo sapiens (human) MDA-MB-435 cells after 48 hr by sulforhodamine B assay; conditions: MDA-MB-435, 48 h; for TGI: read-out: pTGI (converted)
# CCRF-CEM = experiment: Cytotoxicity against Homo sapiens (human) CCRF-CEM cells after 48 hr by sulforhodamine B assay; conditions: for TGI: read-out: pTGI
# MCF7 = experiment: Cytotoxicity against Homo sapiens (human) MCF7 cells after 48 hr by sulforhodamine B assay; conditions: MCF7, 48 h; for TGI: read-out: pTGI (converted)
# 786-0 = experiment: Cytotoxicity against Homo sapiens (human) 786-0 cells after 48 hr by sulforhodamine B assay; conditions: 786-0, 48 h; for TGI: read-out: pTGI (converted)
# OVCAR-3 = experiment: Cytotoxicity against Homo sapiens (human) OVCAR3 cells after 48 hr by sulforhodamine B assay; conditions: OVCAR-3, 48 h; for TGI: read-out: pTGI (converted)
# UACC-62 = experiment: Cytotoxicity against Homo sapiens (human) UACC62 cells after 48 hr by sulforhodamine B assay; conditions: UACC-62, 48 h; for TGI: read-out: pTGI (converted)
# A498 = experiment: Cytotoxicity against Homo sapiens (human) A498 cells after 48 hr by sulforhodamine B assay; conditions: A498, 48 h
structure (smiles),measurement,setting,value
Cc1ccc(-c2cs/c(=N\NC(=O)c3ccc(O)cc3)n2-c2c(C)cccc2C)cc1,GI50,A549,23.4 µM
same,LC50,A549,> 100 µM
same,TGI,A549,> 100 µM
same,GI50,SF-295,20.9 µM
same,LC50,SF-295,> 100 µM
same,TGI,SF-295,79.4 µM
same,GI50,NCI-H23,25.7 µM
same,LC50,NCI-H23,> 100 µM
same,TGI,NCI-H23,> 100 µM
same,GI50,[1],21.4 µM
same,LC50,[1],> 100 µM
same,TGI,[1],69.2 µM
same,GI50,HCT-116,22.9 µM
same,LC50,HCT-116,> 100 µM
same,TGI,HCT-116,> 100 µM
same,GI50,MDA-MB-468,12 µM
same,LC50,MDA-MB-468,> 100 µM
same,TGI,MDA-MB-468,> 100 µM
same,GI50,TK-10,19.1 µM
same,LC50,TK-10,> 100 µM
same,TGI,TK-10,83.2 µM
same,GI50,MDA-MB-231,18.2 µM
same,LC50,MDA-MB-231,> 100 µM
same,TGI,MDA-MB-231,> 100 µM
same,GI50,HOP-92,1320 nM
same,LC50,HOP-92,> 100 µM
same,TGI,HOP-92,26.3 µM
same,GI50,ACHN,20.9 µM
same,LC50,ACHN,> 100 µM
same,TGI,ACHN,> 100 µM
same,GI50,T47D,12.9 µM
same,LC50,T47D,> 100 µM
same,TGI,T47D,63.1 µM
same,GI50,BT-549,21.9 µM
same,LC50,BT-549,> 100 µM
same,TGI,BT-549,> 100 µM
same,GI50,NCI-H522,20.9 µM
same,LC50,NCI-H522,> 100 µM
same,TGI,NCI-H522,> 100 µM
same,GI50,MOLT-4,13.5 µM
same,LC50,MOLT-4,> 100 µM
same,TGI,MOLT-4,57.5 µM
same,GI50,HT-29,17.4 µM
same,LC50,HT-29,83.2 µM
same,TGI,HT-29,38 µM
same,GI50,LOX IMVI,21.9 µM
same,LC50,LOX IMVI,> 100 µM
same,TGI,LOX IMVI,> 100 µM
same,GI50,SW-620,28.8 µM
same,LC50,SW-620,> 100 µM
same,TGI,SW-620,> 100 µM
same,GI50,SN12C,25.7 µM
same,LC50,SN12C,> 100 µM
same,TGI,SN12C,> 100 µM
same,GI50,RXF 393,38 µM
same,LC50,RXF 393,> 100 µM
same,TGI,RXF 393,> 100 µM
same,GI50,OVCAR-5,28.2 µM
same,LC50,OVCAR-5,> 100 µM
same,TGI,OVCAR-5,> 100 µM
same,growth at 10 µM,SK-MEL-5 [2],5.18%
same,GI50,SK-MEL-5 [3],14.5 µM
same,LC50,SK-MEL-5 [3],61.7 µM
same,TGI,SK-MEL-5 [3],30.2 µM
same,GI50,NCI-H460,14.8 µM
same,LC50,NCI-H460,> 100 µM
same,TGI,NCI-H460,72.4 µM
same,GI50,MDA-MB-435,16.6 µM
same,LC50,MDA-MB-435,> 100 µM
same,TGI,MDA-MB-435,85.1 µM
same,GI50,CCRF-CEM,33.1 µM
same,LC50,CCRF-CEM,> 100 µM
same,TGI,CCRF-CEM,> 100 µM
same,GI50,MCF7,23.4 µM
same,LC50,MCF7,> 100 µM
same,TGI,MCF7,95.5 µM
same,GI50,786-0,22.4 µM
same,LC50,786-0,> 100 µM
same,TGI,786-0,> 100 µM
same,GI50,OVCAR-3,17.8 µM
same,LC50,OVCAR-3,> 100 µM
same,TGI,OVCAR-3,47.9 µM
same,GI50,UACC-62,16.6 µM
same,LC50,UACC-62,> 100 µM
same,TGI,UACC-62,95.5 µM
O=C(c1ccc(O)cc1)n1nc(-c2c(Cl)cccc2Cl)sc1=S,GI50,A549,12.3 µM
same,LC50,A549,> 100 µM
same,TGI,A549,58.9 µM
same,GI50,SF-295,5.13 µM
same,LC50,SF-295,> 100 µM
same,TGI,SF-295,29.5 µM
same,GI50,NCI-H23,12.6 µM
same,LC50,NCI-H23,> 100 µM
same,TGI,NCI-H23,53.7 µM
same,GI50,[1],10 µM
same,LC50,[1],> 100 µM
same,TGI,[1],49 µM
same,GI50,HCT-116,10.7 µM
same,LC50,HCT-116,52.5 µM
same,TGI,HCT-116,24 µM
same,GI50,MDA-MB-468,8.71 µM
same,LC50,MDA-MB-468,> 100 µM
same,TGI,MDA-MB-468,91.2 µM
same,GI50,TK-10,4.47 µM
same,LC50,TK-10,> 100 µM
same,TGI,TK-10,42.7 µM
same,GI50,MDA-MB-231,13.2 µM
same,LC50,MDA-MB-231,> 100 µM
same,TGI,MDA-MB-231,60.3 µM
same,GI50,HOP-92,324 nM
same,LC50,HOP-92,43.7 µM
same,TGI,HOP-92,7.76 µM
same,GI50,ACHN,7.76 µM
same,LC50,ACHN,> 100 µM
same,TGI,ACHN,41.7 µM
same,GI50,T47D,3.89 µM
same,LC50,T47D,> 100 µM
same,TGI,T47D,32.4 µM
same,GI50,BT-549,28.8 µM
same,LC50,BT-549,> 100 µM
same,TGI,BT-549,60.3 µM
same,GI50,NCI-H522,11.7 µM
same,LC50,NCI-H522,> 100 µM
same,TGI,NCI-H522,41.7 µM
same,GI50,MOLT-4,4.47 µM
same,LC50,MOLT-4,> 100 µM
same,TGI,MOLT-4,27.5 µM
same,GI50,HT-29,8.32 µM
same,LC50,HT-29,53.7 µM
same,TGI,HT-29,22.9 µM
same,GI50,LOX IMVI,10 µM
same,LC50,LOX IMVI,75.9 µM
same,TGI,LOX IMVI,27.5 µM
same,GI50,SW-620,12 µM
same,LC50,SW-620,87.1 µM
same,TGI,SW-620,31.6 µM
same,GI50,A498,2340 nM
same,CC50,A498; read-out: pLC50 (the source's name) (converted),53.7 µM
same,TGI,A498; read-out: pTGI (converted),17 µM
same,GI50,SN12C,11.2 µM
same,LC50,SN12C,> 100 µM
same,TGI,SN12C,46.8 µM
same,GI50,RXF 393,17.4 µM
same,LC50,RXF 393,> 100 µM
same,TGI,RXF 393,51.3 µM
same,GI50,OVCAR-5,19.5 µM
same,LC50,OVCAR-5,> 100 µM
same,TGI,OVCAR-5,61.7 µM
same,GI50,SK-MEL-5 [3],10.7 µM
same,LC50,SK-MEL-5 [3],56.2 µM
same,TGI,SK-MEL-5 [3],24.5 µM
same,GI50,NCI-H460,9.33 µM
same,LC50,NCI-H460,75.9 µM
same,TGI,NCI-H460,26.3 µM
same,GI50,MDA-MB-435,3.72 µM
same,LC50,MDA-MB-435,> 100 µM
same,TGI,MDA-MB-435,31.6 µM
same,GI50,CCRF-CEM,9.55 µM
same,LC50,CCRF-CEM,> 100 µM
same,TGI,CCRF-CEM,> 100 µM
same,GI50,MCF7,11.5 µM
same,LC50,MCF7,87.1 µM
same,TGI,MCF7,32.4 µM
same,GI50,786-0,2.34 µM
same,LC50,786-0,53.7 µM
same,TGI,786-0,17 µM
same,GI50,OVCAR-3,6.17 µM
same,LC50,OVCAR-3,67.6 µM
same,TGI,OVCAR-3,28.8 µM
same,GI50,UACC-62,9.55 µM
same,LC50,UACC-62,58.9 µM
same,TGI,UACC-62,24 µM
